Source: patent publication US12590106B2, “Spiromacrocyclic orexin 2 receptor agonists” (H. Lundbeck A/S, priority 2023, dated 2026)

Target: T1, human Ox2R (Homo sapiens, UniProt O43614)
T1 construct: The gene encoding hOx2R was subcloned into the expression plasmid pcDNA5/FRT/TO; expressed in transfected cells; host or cells: CHO Flp-In cells (pcDNA5/FRT/TO with pOG44 Flp recombinase vector, hygromycin B selection)
T1 sequence (O43614 1-444): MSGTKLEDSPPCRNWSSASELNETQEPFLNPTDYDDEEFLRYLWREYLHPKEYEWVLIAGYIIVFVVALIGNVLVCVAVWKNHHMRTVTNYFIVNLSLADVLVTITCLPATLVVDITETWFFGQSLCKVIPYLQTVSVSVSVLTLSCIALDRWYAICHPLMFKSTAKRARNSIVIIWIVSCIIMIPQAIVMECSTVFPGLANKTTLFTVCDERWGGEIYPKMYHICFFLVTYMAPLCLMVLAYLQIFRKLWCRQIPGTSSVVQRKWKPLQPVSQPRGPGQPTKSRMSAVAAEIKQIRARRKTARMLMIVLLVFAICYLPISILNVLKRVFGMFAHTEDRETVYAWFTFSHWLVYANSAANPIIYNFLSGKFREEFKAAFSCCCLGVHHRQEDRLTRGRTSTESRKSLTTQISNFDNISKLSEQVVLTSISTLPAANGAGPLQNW
Test: Measurement of OX2R agonist activity (cell-based calcium release assay)
Conditions: hOx2R-CHO Flp-In cells, n≥2 tests; for EC50: intracellular calcium, read-out: EC50; for Emax: read-out: Emax (%)
Text: Measurement of OX2R Agonist Activity
The Ox2R has a broad signaling profile and couple to a range of different Gα-proteins. The cell-based calcium release assay is primarily assessing signaling through the Gαq signaling pathway, which promotes calcium mobilization via inositol triphosphate production upon activation of Ox2R.
A CHO Flp-In cell-line stably expressing the human Ox2R (hOx2R-CHO Flp-In) was established as follows: The gene encoding hOx2R was subcloned into the expression plasmid pcDNA5/FRT/TO and then transfected into CHO Flp-In cells together with the Flp recombinase vector, pOG44. Cells were cultured in growth medium: Ham's F12 (Gibco), 10% fetal bovine serum (Gibco) and 100 U/mL penicillin-streptomycin (Gibco) supplemented with hygromycin B (Thermo Fisher Scientific) as selection marker at 37° C. in the presence of 5% CO2.
To prepare the hOx2R-CHO FlpIn cells for calcium release assay, the cells were suspended in growth medium and seeded in black, clear-bottomed 384-well plates (Corning) at 10,000 cells/well. The plated cells were grown overnight at 37° C. and 5% CO2. The following day, the media was removed, and the cells were incubated with assay buffer (HBSS with 20 mM HEPES, pH 7.4) containing 2.5 mM probenecid (Thermo Fisher Scientific), 10 mM CaCl2, 0.1% pluronic F68 (Gibco) and 1× calcium-4 dye (Molecular Devices) for 1 h at 37° C. and 5% CO2. After incubation, cells were allowed to equilibrate at room temperature for 15 minutes and then loaded into FDSS7000Ex system (Hamamatsu Photonics) together with a plate containing test compounds serially diluted in assay buffer. Cells were stimulated with test compounds (online injection) and the agonist activity was determined as an increase in intracellular calcium concentration measured from the ratio of fluorescence emission at 542 nm by excitation at 480 nm. The agonist response for each applied concentration was assessed as the ratio: maximum fluorescence/average pre-stimulated fluorescence and was normalized to responses from assay buffer alone (0% response) and 10 μM Danavorexton (100% response). EC50 and Emax values were calculated from concentration-response curves by using Genedata Screener software.

[1] = normalized to assay buffer (0%) and 10 μM Danavorexton (100%)

Row | Compound | EC50 [nM] | Emax [1] [%] | Emax (%) [1] [%]
1 | CS(=O)(=O)N[C@H]1CC[C@@]2(Cc3ccc(F)c(c3)-c3cccc(F)c3OCC3=NN=C2O3)C1 [Example 71, N-[(1′S,14R)-6,19-difluorospiro[8,21-dioxa-11,12-diazatetracyclo[14.3.1.110,13.02,7]henicosa-1(19),2(7),3,5,10,12,16(20),17-octaene-14,3′-cyclopentane]-1′-yl]methanesulfonamide] | 49 | 97 | –
2 | CS(=O)(=O)NC1CCC2(C1)c1nc(co1)COc1c(F)cccc1-c1cc(ccc1F)C2F (single isomer, unassigned) [Example 77, N-[(1′S,14R,15S or 15R)-6,15,19-trifluorospiro[8,12-dioxa-21-azatetracyclo[14.3.1.110,13.02,7]henicosa-1(19),2,4,6,10,13(21),16(20),17-octaene-14,3′-cyclopentane]-1′-yl]methanesulfonamide] | 1.4 | 99 | –
3 | CS(=O)(=O)N[C@H]1CC[C@@]2(Cc3ccnc(c3)-c3cccc(F)c3OCc3coc2n3)C1 [Example 19, N-[(1′S,14R)-6-fluorospiro[8,12-dioxa-19,21-diazatetracyclo[14.3.1.110,13.02,7]henicosa-1(19),2,4,6,10,13(21),16(20),17-octaene-14,3′-cyclopentane]-1′-yl]methanesulfonamide] | 35 | 100 | –
4 | CS(=O)(=O)NC1CCC2(C1)c1nc(co1)COc1c(F)cccc1-c1cc(ccc1F)C2F (single isomer, unassigned) [Example 78, N-[(1′S,14R,15S or 15R)-6,15,19-trifluorospiro[8,12-dioxa-21-azatetracyclo[14.3.1.110,13.02,7]henicosa-1(19),2,4,6,10,13(21),16(20),17-octaene-14,3′-cyclopentane]-1′-yl]methanesulfonamide] | 0.17 | – | 95
5 | CS(=O)(=O)N[C@H]1CC[C@@]2(Cc3ccc(F)c(c3)-c3cc(F)cc(F)c3OCc3coc2n3)C1 [Example 69, N-[(1′S,14R)-4,6,19-trifluorospiro[8,12-dioxa-21-azatetracyclo[14.3.1.110,13.02,7]henicosa-1(19),2,4,6,10,13(21),16(20),17-octaene-14,3′-cyclopentane]-1′-yl]methanesulfonamide] | 0.2 | 96 | –
6 | CN(C)S(=O)(=O)N[C@H]1CC[C@@]2(Cc3ccc(F)c(c3)-c3ccccc3OCc3coc2n3)C1 [Example 13, (3′S,14R)-3′-(dimethylsulfamoylamino)-19-fluoro-spiro[8,12-dioxa-21-azatetracyclo[14.3.1.110,13.02,7]henicosa-1(19),2,4,6,10,13(21),16(20),17-octaene-14,1′-cyclopentane]] | 0.28 | 95 | –
7 | CS(=O)(=O)N[C@H]1CC[C@@]2(CO[C@H]3CC[C@H](CC3)c3cccc(c3)OCc3coc2n3)C1 [Example 41, N-[(1s,1′S,13S,16s)-spiro[7,11,15-trioxa-21-azatetracyclo[14.2.2.12,6.19,12]docosa-2,4,6(22),9,12(21)-pentaene-13,3′-cyclopentane]-1′-yl]methanesulfonamide] | 0.19 | 98 | –
8 | Cc1cccc2c1OCc1coc(n1)[C@]1(CC[C@H](NS(C)(=O)=O)C1)Cc1ccc(F)c-2c1 [Example 37, N-[(1′S,14R)-19-fluoro-6-methyl-spiro[8,12-dioxa-21-azatetracyclo[14.3.1.110,13.02,7]henicosa-1(19),2,4,6,10,13(21),16(20),17-octaene-14,3′-cyclopentane]-1′-yl]methanesulfonamide] | 1.1 | 96 | –
9 | CS(=O)(=O)N[C@H]1CC[C@@]2(Cc3cc(ccc3F)-c3ccccc3OCc3coc2n3)C1 [Example 10, N-[(1′S,14R)-17-fluorospiro[8,12-dioxa-21-azatetracyclo[14.3.1.110,13.02,7]henicosa-1(19),2,4,6,10,13(21),16(20),17-octaene-14,3′-cyclopentane]-1′-yl]methanesulfonamide] | 1.5 | 100 | –
10 | CS(=O)(=O)N[C@H]1CC[C@@]2(Cc3cccc(c3)-c3cccc(c3)OCc3coc2n3)C1 [Example 48, N-[(1′S,13R)-spiro[7,11-dioxa-20-azatetracyclo[13.3.1.12,6.19,12]henicosa-1(19),2,4,6(21),9,12(20),15,17-octaene-13,3′-cyclopentane]-1′-yl]methanesulfonamide] | 15 | 95 | –
11 | CS(=O)(=O)N[C@H]1CC[C@@]2(CO[C@H]3CC[C@H](CC3)c3ccccc3OCc3coc2n3)C1 [Example 2, N-[(1s,1′S,14R,17s)-spiro[8,12,16-trioxa-22-azatetracyclo[15.2.2.110,13.02,7]docosa-2,4,6,10,13(22)-pentaene-14,3′-cyclopentane]-1′-yl]methanesulfonamide] | 0.43 | 99 | –

Other lines, results leading:

Row | EC50 [nM] | Emax [1] [%] | Emax (%) [1] [%] | Compound
12 | 0.32 | 100 | – | CS(=O)(=O)N[C@H]1CC[C@@]2(Cc3ccc(F)c(c3)-c3cc(F)cc(F)c3OCc3ccnc2n3)C1 [Example 91, N-[(1′S,15R)-4,6,20-trifluorospiro[8-oxa-13,22-diazatetracyclo[15.3.1.110,14.02,7]docosa-1(20),2,4,6,10,12,14(22),17(21),18-nonaene-15,3′-cyclopentane]-1′-yl]methanesulfonamide]
13 | 2.6 | 100 | – | Cn1cc2c(n1)OCc1coc(n1)[C@]1(CC[C@H](NS(C)(=O)=O)C1)Cc1cc-2c(F)cc1F [Example 83, N-[(1′S,13R)-16,18-difluoro-4-methyl-spiro[7,11-dioxa-4,5,20-triazatetracyclo[13.3.1.19,12.02,6]icosa-1(18),2,5,9,12(20),15(19),16-heptaene-13,3′-cyclopentane]-1′-yl]methanesulfonamide]
14 | 0.1 | 100 | – | CS(=O)(=O)N[C@@H]1C[C@]2(Cc3ccc(F)c(c3)-c3cccc(F)c3OCc3ccnc2n3)[C@H]2C[C@@H]12 [Example 118, N-[(1′R,2′R,5′S,15R)-6,20-difluorospiro[8-oxa-13,22-diazatetracyclo[15.3.1.110,14.02,7]docosa-1(21),2,4,6,10,12,14(22),17,19-nonaene-15,4′-bicyclo[3.1.0]hexane]-2′-yl]methanesulfonamide]
15 | 0.52 | 96 | – | CS(=O)(=O)N[C@@H]1C[C@]2(Cc3ccc(F)c(c3)-c3cc(F)cc(F)c3OCc3ccnc2n3)[C@H]2C[C@@H]12 [Example 119, N-[(1′R,2′R,5′S,15R)-4,6,20-trifluorospiro[8-oxa-13,22-diazatetracyclo[15.3.1.110,14.02,7]docosa-1(21),2,4,6,10,12,14(22),17,19-nonaene-15,4′-bicyclo[3.1.0]hexane]-2′-yl]methanesulfonamide]
16 | 0.25 | 100 | – | CCS(=O)(=O)N[C@H]1CC[C@@]2(Cc3cc(c(F)cc3F)-c3cccc(F)c3OCc3coc2n3)C1 [Example 84, N-[(1′S,14R)-6,17,19-trifluorospiro[8,12-dioxa-21-azatetracyclo[14.3.1.110,13.02,7]henicosa-1(19),2,4,6,10,13(21),16(20),17-octaene-14,3′-cyclopentane]-1′-yl]ethanesulfonamide]
